The results in this text go back to patent publication US11123408B2, “Compositions and methods for treating nonsteroidal anti-inflammatory drug (NSAID) associated coagulopathy, thrombocytopenia, glanzmann's thrombasthenia, and/or thrombosis” (YALE UNIVERSITY, priority 2011, dated 2021).

“Also recorded” adds a separate entry of the source.

For assay [1], the system named is platelets in platelet rich plasma. The assay can be described thus: Light transmission aggregometry (LTA) in platelet rich plasma. Type of assay: cell-based, human. As to conditions: for inhibition of NPP4/Ap3A-promoted platelet aggregation (qualitative): increasing antagonist concentrations; for platelet aggregation response of enzyme in the presence of 80 μM Ap3A (qualitative): enzyme 50-200 nM. The procedure:
(§1) Whole blood from healthy voluntary donors was collected in accordance with an IRB-approved protocol into blue top vacutainer tubes containing 3.2% sodium citrate. Blood was centrifuged at 1000 RPM for 10 minutes at room temperature to collect platelet rich plasma (PRP). PRP in the supernatant was then transferred to fresh tubes, and the remainder of the specimen was centrifuged at 4000 RPM for 10 minutes to obtain platelet poor plasma (PPP). PRP was adjusted to a final platelet count of 250×10^6 platelets/mL with autologous PPP for use in aggregation studies. Potential donors were excluded if there was a history of a bleeding disorder or current anticoagulant use and donors were instructed to avoid NSAIDs for at least 7 days prior to donation. Approval for the human subjects involved in this research was sought and granted by the Committee for the Protection of Human Subjects, Dartmouth-Hitchcock Medical Center, where these studies were conducted in accordance with the Declaration of Helsinki.
(§2) Light transmission (i.e., optical) and lumi aggregometry were performed on up to four samples from the same individual simultaneously with a Chrono-Log Model 700 Whole Blood/Optical Lumi Aggregometer (Chrono-Log Corporation, Havertown, Pa.) using procedures provided by the manufacturer that are briefly summarized here.
(§3) Platelet aggregation was determined by measuring the change in light transmittance of stirred PRP over time after addition of various agonists. Prior to each experiment the aggregometer was standardized to reflect 100% and 0% light transmittance with PPP and PRP, respectively, from the donor whose platelets were used in each specific experiment. 500 μL PRP was added to cuvettes containing a magnetic stir bar and allowed to pre-warm to 37° C. in the aggregometer wells for 3 minutes prior to initiating aggregation reactions which were then conducted at 37° C. Aggregation reactions were initiated by direct addition of agonists and/or enzymes to warmed, stirred PRP, and were monitored for an increase in light transmittance for 10 minutes. The increase in light transmittance is directly proportional to the amount of aggregation and is amplified and digitized into a computer (HP Compaq, Hewlett-Packard, Palo Alto, Calif.) with the AGGRO/LINK8 for Windows software (Chrono-Log Corporation, Havertown, Pa.) to generate aggregation curves. […] The platelet aggregometry experiments for all concentrations of MRS 2395 (including the 0 μM point) were conducted with the plasma adjusted to a final concentration of 10% DMSO to solubilize the inhibitor.

Assay [2] has the same test system. As to the kind of experiment: Lumi aggregometry (extracellular ATP, dense granule release) simultaneously with LTA. Type of assay: cell-based, human. As to the method: as §1, §2, §3
In a subgroup of experiments, lumi aggregometry was used to assay the levels of extracellular ATP simultaneously with LTA. Lumi aggregometry measures ATP in the extracellular space over time using a sensitive luminescent assay employing firefly luciferin-luciferase (CHRONO-LUME™ reagent, Chrono-Log Corporation, Havertown, Pa.). ATP binds to luciferin-luciferase and generates light that is then amplified by a high-gain photomultiplier tube in the lumi aggregometer and is measured simultaneously with the optical change in light transmittance caused by platelet aggregation. In experiments in which lumi aggregometry was performed, 450 μL of PRP was transferred to cuvettes containing magnetic stir bars and allowed to pre-warm to 37° C. in the aggregometer wells for 3 minutes. […] Reactions were initiated by the addition of agonists and/or enzymes to warmed PRP and CHRONOLUME′ reagent and were monitored for light generation. […]

Assay [3] in a line: Ap3A hydrolysis by NPP enzymes (linked malachite green assay, absorbance change at 259 nm, HPLC). It is filed as biochemical. As to conditions: linked assay or steady state enzymatic studies. The procedure:
(§4) NPP4 nucleotide substrates were identified by directly detecting the free phosphate (Pi) product using malachite green (ADP substrate) or by a linked hydrolysis assay with alkaline phosphatase combined with malachite green (lipid substrates and nucleotide substrates without terminal P1) to measure released Pi. 50 μM substrate P1 equivalents (e.g. 25 μM ADP) were treated with 50 nM NPP4 for 1 hr 37 min (lipids) or 3 hr 15 min (all other substrates). For substrates without terminal phosphates, 10 units of calf intestinal alkaline phosphatase (M0290S, 10,000 units/mL, New England Biolabs, Ipswich, Mass.) was added for a final reaction volume of 50 μL. 100 μL of malachite green (BIOMOL GREEN™, Enzo Life Sciences, Plymouth Meeting, Pa.) was added to quench the reactions. The amount of phosphate released was measured by absorbance at 620 nm by a Biotek Synergy Mx plate reader (Winooski, Vt.) in 96-well plates (3679, Corning Inc., Corning, N.Y.) and compared against a phosphate standard curve.
The kinetics of the steady state Ap3A/Ap4A cleavage by NPP4 was measured from time courses of absorbance change at 259 nm using a UV spectrophotometer with a 0.1 cm optical path length cuvette or a stopped-flow device with a 0.2 cm optical path length cell. The enzymology reactions in 50 mM Tris pH 8.0, 140 mM NaCl, 5 mM KCl, 1 mM MgCl2 and 1 mM CaCl2 were started by addition of 1 μM NPP4 to varying concentrations of Ap3A/Ap4A (up to 800 μM) solution (UV spectrophotometer) or by rapid mixing of NPP4 and Ap3A/Ap4A (stopped-flow). The substrate concentrations higher than 800 μM have absorption too high to be measured by a UV spectrophotometer and stopped-flow, and were therefore measured by HPLC. […] Therefore, the rate of a product production or enzyme turnover measured by the absorption change assay can be calculated by the rate of absorption change
[formula] according to the following formula;
[formula] where Δl is optical path length. The following absorption coefficients were used: Ap3A: 25.75 mM^−1 cm^−1. Ap4A: 25.4 mM^−1 cm^−1. AMP, ADP, and ATP: 15.4 mM^−1 cm^−1. ADP Receptor Inhibitor Assay for NPP4 Inhibition
The HPLC protocol used to measure Ap3A/Ap4A cleavage by NPP4 and for product identification is modified from that of Stocchi et al. (1985, Anal Biochem 146:118-24). The reactions containing varying concentrations of Ap3A/Ap4A in the same buffer as in the absorbance change assay were started by addition of 0.2-1 μM NPP4 and quenched at various time points by equal volume of 3 M formic acid, or 0.5 N KOH and re-acidified by glacial acetic acid to pH 6. The quenched reaction solution was diluted systematically and loaded a HPLC system (Waters, Milford Mass.) and substrates and products were monitored by UV absorbance at 254 or 259 nm. Substrates and products were separated on a C18, 5 μm 250×4.6 mm HPLC column (Higgins Analytical, Mountain View, Calif.), using 15 mM ammonium acetate pH 6.0 solution, with a 0% to 10% (or 20%) methanol gradient. The products and substrate were quantified according to the integration of their correspondent peaks and the formula:
[formula] where [substrate]0 is the initial substrate concentration. The extinction coefficients of Ap3A, Ap4A, AMP, ADP and ATP used in the formula were the same as those used in absorption change assay. If monitoring at 254 nm, substrate and product standards run on the same day as the reactions were used to convert integrated product/substrate peak areas to concentrations. […]

Assay [4] can be described thus: Diadenosine polyphosphate cleavage (linked assay, HPLC, absorbance). It is filed as biochemical. As to conditions: HPLC or absorbance / real time spectrophotometric assay. The procedure: as §4, with “100 μL of malachite green (BIOMOL GREEN™, Enzo Life Sciences, Plymouth Meeting, Pa.) was added to quench the reactions.” left out
The kinetics of the steady state Ap3A/Ap4A cleavage by NPP4 was measured from time courses of absorbance change at 259 nm using a UV spectrophotometer with a 0.1 cm optical path length cuvette or a stopped-flow device with a 0.2 cm optical path length cell. […] The substrate concentrations higher than 800 μM have absorption too high to be measured by a UV spectrophotometer and stopped-flow, and were therefore measured by HPLC. […]

For `Nc1ncnc2c1ncn2[C@@H]1O[C@H](COP(=O)(O)OP(=O)(O)OP(=O)(O)OP(=O)(O)OC[C@H]2O[C@@H](n3cnc4c(N)ncnc43)[C@H](O)[C@@H]2O)[C@@H](O)[C@H]1O` [Ap4A], in assay [1] (80 μM Ap4A added to 100 nM NPP4 and 80 μM Ap3A), the “effect of Ap4A on Ap3A/NPP4-induced platelet aggregation” value is listed as “roughly half of the aggregation; also recorded: intermediate degree of platelet aggregation”. In assay [1] (80 μM Ap4A alone or in the presence of 100 nM NPP4), the “platelet aggregation response to Ap4A (qualitative)” value was “no apparent positive effect on aggregation; also recorded: does not trigger even a primary wave of aggregation”. Moreover, the “platelet aggregation and granule release, Ap4A with NPP4 (qualitative)” value in assay [2] (40 μM Ap4A with 100 nM NPP4) was “no measurable platelet aggregation; also recorded: no platelet aggregation and no granule release”.
For the molecule `CNc1nc(Cl)nc2c1ncn2CC(COC(=O)C(C)(C)C)COC(=O)C(C)(C)C` [MRS 2395], the “inhibition of NPP4/Ap3A-promoted platelet aggregation (qualitative)” value in assay [1] (50 nM NPP4, 80 μM Ap3A) is “concentration-dependent inhibition of platelet aggregation; also recorded: dose-dependent inhibition of the platelet aggregation response”. Further, in assay [1] (200 μM antagonist, 50 nM NPP4, 80 μM Ap3A, 10% DMSO), the “inhibition of NPP4/Ap3A-promoted platelet aggregation at 200 μM” value is listed as “complete inhibition”.
For the molecule `CNc1ncnc2c1ncn2[C@H]1C[C@H](OP(=O)(O)O)[C@@H](COP(=O)(O)O)O1` [MRS 2179], the “inhibition of NPP4/Ap3A-promoted platelet aggregation (qualitative)” value in assay [1] (50 nM NPP4, 80 μM Ap3A) is listed as “concentration-dependent inhibition of platelet aggregation; also recorded: dose-dependent inhibition of the platelet aggregation response”.
In the case of diadenosine triphosphate [Ap3A], the “platelet aggregation response to Ap3A in the presence of 100 nM NPP4 (qualitative)” value in assay [1] (100 nM NPP4, dose response of Ap3A) was “induces both the primary and secondary waves of aggregation in a concentration-dependent fashion; also recorded: robust platelet aggregation”. Besides, the maximum aggregation is 70% in assay [1] (40 μM Ap3A in the presence of 100 nM NPP4) and “greater than 80%” in assay [1] (Ap3A 80 μM or higher in the presence of 100 nM NPP4). In assay [1] (agent alone in PRP (Ap3A up to 160 μM; NPP4 100 nM)), the “platelet aggregation response, agent alone (qualitative)” value is “triggers a primary wave of aggregation without degranulation, followed by rapid disaggregation; also recorded: only a primary wave of aggregation followed by rapid platelet disaggregation; also recorded: triggers a primary wave of aggregation, which is followed by rapid disaggregation”. Also, the “platelet aggregation and luminescence, Ap3A alone (qualitative)” value in assay [2] (40 μM Ap3A alone in PRP) is on record as “primary wave of aggregation, followed by rapid disaggregation”.

B1: NPP4-T70A: inactive mutant NPP4 extracellular domain, catalytic threonine 70 mutated to alanine (protein, UniProt Q9Y6X5 16-407, looked up, variant T70A)
extracellular domain: FRSDSSSSLPPKLLLVSFDGFRADYLKNYEFPHLQNFIKEGVLVEHVKNVFITKAFPNHYSIVTGLYEESHGIVANSMYDAVTKKHFSDSNDKDPFWWNEAVPIWVTNQLQENRSSAAAMWPGTDVPIHDTISSYFMNYNSSVSFEERLNNITMWLNNSNPPVTFATLYWEEPDASGHKYGPEDKENMSRVLKKIDDLIGDLVQRLKMLGLWENLNVIITSDHGMTQCSQDRLINLDSCIDHSYYTLIDLSPVAAILPKINRTEVYNKLKNCSPHMNVYLKEDIPNRFYYQHNDRIQPIILVADEGWTIVLNESSQKLGDHGYDNSLPSMHPFLAAHGPAFHKGYKHSTINIVDIYPMMCHILGLKPHPNNGTFGHTKCLLVDQWCINLPEA
modifications: extracellular domain
As for B1, the “platelet aggregation response of enzyme in the presence of 80 μM Ap3A (qualitative)” value in assay [1] was “fails to induce aggregation”; in assay [1] (listed as T70A mutant of NPP4), “no effect on platelet aggregation”. Further, the “platelet aggregation and dense granule (ATP) release, enzyme with Ap3A (qualitative)” value in assay [2] (100 nM enzyme with 40 μM Ap3A) is recorded as “A similar pattern is observed”. In assay [3], the “Ap3A cleavage / hydrolysis (qualitative)” value is listed as “incapable of Ap3A hydrolysis”. Further, the “diadenosine polyphosphate cleavage (qualitative)” value in assay [4] is “did not cleave diadenosine polyphosphates”.
